Measurements as given in PubChem BioAssay (NCI).
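Method: 48-hour compound exposure of cells in 96-well plates, five concentrations, linear interpolation of endpoints. TGI denotes the concentration required for complete inhibition of growth.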 Where a SMILES comes first, the peptide text is derived from it. [ ]: non-standard residue; d: D form. The star is where a group is joined. ξ: configuration not given here. ξW = NC(Cc1c[nH]c2ccccc12)C(=O)O; X30 = O=C(O)[C@H]1CCC[C@H]1N*; ξF = NC(Cc1ccccc1)C(=O)O; Boc = CC(C)(C)OC(=O)*; ξK = NCCCCC(N)C(=O)O; ξT = CC(O)C(N)C(=O)O; tBu = CC(C)(C)*

Tests used:
Assay in all cases: NCI-60 cell line screen, 48 h
OVCAR-4 ovarian = test system: OVCAR-4 ovarian
SF-268 CNS = test system: SF-268 CNS
HOP-92 NSCLC = test system: HOP-92 NSCLC
DU-145 prostate = test system: DU-145 prostate
T-47D breast = test system: T-47D breast
SK-OV-3 ovarian = test system: SK-OV-3 ovarian
UACC-257 melanoma = test system: UACC-257 melanoma
MOLT-4 leukemia = test system: MOLT-4 leukemia
HS 578T breast = test system: HS 578T breast
CCRF-CEM leukemia = test system: CCRF-CEM leukemia
M14 melanoma = test system: M14 melanoma
RXF 393 renal = test system: RXF 393 renal
ACHN renal = test system: ACHN renal
OVCAR-3 ovarian = test system: OVCAR-3 ovarian
NCI-H522 lung = test system: NCI-H522 lung
OVCAR-5 ovarian = test system: OVCAR-5 ovarian
NCI-H460 lung = test system: NCI-H460 lung
CAKI-1 renal = test system: CAKI-1 renal
SF-539 CNS = test system: SF-539 CNS
NCI-H226 lung = test system: NCI-H226 lung
KM12 colon = test system: KM12 colon
SK-MEL-5 melanoma = test system: SK-MEL-5 melanoma
SK-MEL-2 melanoma = test system: SK-MEL-2 melanoma
SR leukemia = test system: SR leukemia
HCT-15 colon = test system: HCT-15 colon
RPMI-8226 leukemia = test system: RPMI-8226 leukemia
SN12C renal = test system: SN12C renal
EKVX NSCLC = test system: EKVX NSCLC
UACC-62 melanoma = test system: UACC-62 melanoma
HCC-2998 colon = test system: HCC-2998 colon
SF-295 CNS = test system: SF-295 CNS
HCT-116 colon = test system: HCT-116 colon
SNB-75 CNS = test system: SNB-75 CNS
MALME-3M melanoma = test system: MALME-3M melanoma
A549 NSCLC = test system: A549 NSCLC
HOP-62 NSCLC = test system: HOP-62 NSCLC
HL-60(TB) leukemia = test system: HL-60(TB) leukemia
OVCAR-8 ovarian = test system: OVCAR-8 ovarian
K-562 leukemia = test system: K-562 leukemia
NCI-H23 lung = test system: NCI-H23 lung
UO-31 renal = test system: UO-31 renal
MDA-N = test system: MDA-N
IGROV1 ovarian = test system: IGROV1 ovarian
HT29 colon = test system: HT29 colon
MDA-MB-435 = test system: MDA-MB-435
TK-10 renal = test system: TK-10 renal
MCF7 breast = test system: MCF7 breast
SK-MEL-28 melanoma = test system: SK-MEL-28 melanoma
COLO 205 colon = test system: COLO 205 colon
A498 renal = test system: A498 renal
MDA-MB-231 breast = test system: MDA-MB-231 breast
SNB-19 CNS = test system: SNB-19 CNS
PC-3 prostate = test system: PC-3 prostate
786-0 renal = test system: 786-0 renal
NCI/ADR-RES ovarian = test system: NCI/ADR-RES ovarian
SW-620 colon = test system: SW-620 colon
U251 CNS = test system: U251 CNS
LOX IMVI melanoma = test system: LOX IMVI melanoma

## CN(C)C=Nc1c(Br)cc(Br)c2nonc12
OVCAR-4 ovarian
  TGI: > 100 µM
SF-268 CNS
  TGI: > 100 µM
HOP-92 NSCLC
  TGI: > 100 µM
DU-145 prostate
  TGI: > 100 µM
T-47D breast
  TGI: > 100 µM
SK-OV-3 ovarian
  TGI: > 100 µM
UACC-257 melanoma
  TGI: > 100 µM
MOLT-4 leukemia
  TGI: > 100 µM
HS 578T breast
  TGI: > 100 µM
CCRF-CEM leukemia
  TGI: > 100 µM
M14 melanoma
  TGI: > 100 µM
RXF 393 renal
  TGI: > 100 µM
ACHN renal
  TGI: > 100 µM
OVCAR-3 ovarian
  TGI: > 100 µM
NCI-H522 lung
  TGI: > 100 µM
OVCAR-5 ovarian
  TGI: > 100 µM
NCI-H460 lung
  TGI: > 100 µM
CAKI-1 renal
  TGI: > 100 µM
SF-539 CNS
  TGI: > 100 µM
NCI-H226 lung
  TGI: > 100 µM
KM12 colon
  TGI: > 100 µM
SK-MEL-5 melanoma
  TGI: > 100 µM
SK-MEL-2 melanoma
  TGI: > 100 µM
SR leukemia
  TGI: > 100 µM
HCT-15 colon
  TGI: > 100 µM
RPMI-8226 leukemia
  TGI: > 100 µM
SN12C renal
  TGI: > 100 µM
EKVX NSCLC
  TGI: > 100 µM
UACC-62 melanoma
  TGI: > 100 µM
HCC-2998 colon
  TGI: > 100 µM
SF-295 CNS
  TGI: > 100 µM
HCT-116 colon
  TGI: > 100 µM
SNB-75 CNS
  TGI: > 100 µM
MALME-3M melanoma
  TGI: > 100 µM
A549 NSCLC
  TGI: > 100 µM
HOP-62 NSCLC
  TGI: > 100 µM
HL-60(TB) leukemia
  TGI: > 100 µM
OVCAR-8 ovarian
  TGI: > 100 µM
K-562 leukemia
  TGI: > 100 µM
NCI-H23 lung
  TGI: > 100 µM
UO-31 renal
  TGI: > 100 µM
MDA-N
  TGI: > 100 µM
IGROV1 ovarian
  TGI: > 100 µM
HT29 colon
  TGI: > 100 µM
MDA-MB-435
  TGI: > 100 µM
TK-10 renal
  TGI: > 100 µM
MCF7 breast
  TGI: > 100 µM
SK-MEL-28 melanoma
  TGI: > 100 µM
COLO 205 colon
  TGI: > 100 µM
A498 renal
  TGI: > 100 µM
MDA-MB-231 breast
  TGI: > 100 µM
SNB-19 CNS
  TGI: > 100 µM
PC-3 prostate
  TGI: > 100 µM
786-0 renal
  TGI: > 100 µM
NCI/ADR-RES ovarian
  TGI: > 100 µM
SW-620 colon
  TGI: > 100 µM

## CC(OC(C)(C)C)C(NC(=O)C(CCCCNC(=O)OC(C)(C)C)NC(=O)C(Cc1c[nH]c2ccccc12)NC(=O)C(N)Cc1ccccc1)C(=O)NC(Cc1ccccc1)C(=O)N[C@@H]1CCC[C@@H]1C(=O)O (stereo not given in full) (H-[ξF][ξW][ξK](Boc)[ξT](tBu)[ξF]-X30)
OVCAR-4 ovarian
  TGI: > 100 µM
SF-268 CNS
  TGI: > 100 µM
HOP-92 NSCLC
  TGI: 88.3 µM
DU-145 prostate
  TGI: > 100 µM
T-47D breast
  TGI: > 100 µM
SK-OV-3 ovarian
  TGI: > 100 µM
UACC-257 melanoma
  TGI: > 100 µM
MOLT-4 leukemia
  TGI: > 100 µM
HS 578T breast
  TGI: 50.6 µM
CCRF-CEM leukemia
  TGI: 92.4 µM
M14 melanoma
  TGI: > 100 µM
U251 CNS
  TGI: 68.3 µM
RXF 393 renal
  TGI: > 100 µM
ACHN renal
  TGI: > 100 µM
OVCAR-3 ovarian
  TGI: > 100 µM
NCI-H522 lung
  TGI: 41 µM
OVCAR-5 ovarian
  TGI: 40.6 µM
NCI-H460 lung
  TGI: > 100 µM
CAKI-1 renal
  TGI: > 100 µM
SF-539 CNS
  TGI: 36.5 µM
NCI-H226 lung
  TGI: 52.4 µM
KM12 colon
  TGI: 37.2 µM
SK-MEL-5 melanoma
  TGI: > 100 µM
SK-MEL-2 melanoma
  TGI: 41.5 µM
SR leukemia
  TGI: > 100 µM
LOX IMVI melanoma
  TGI: 60 µM
RPMI-8226 leukemia
  TGI: > 100 µM
SN12C renal
  TGI: 67.2 µM
EKVX NSCLC
  TGI: > 100 µM
UACC-62 melanoma
  TGI: 85.5 µM
HCC-2998 colon
  TGI: 41.1 µM
SF-295 CNS
  TGI: > 100 µM
HCT-116 colon
  TGI: > 100 µM
SNB-75 CNS
  TGI: > 100 µM
MALME-3M melanoma
  TGI: > 100 µM
A549 NSCLC
  TGI: > 100 µM
HOP-62 NSCLC
  TGI: > 100 µM
HL-60(TB) leukemia
  TGI: 82.9 µM
OVCAR-8 ovarian
  TGI: > 100 µM
K-562 leukemia
  TGI: > 100 µM
NCI-H23 lung
  TGI: > 100 µM
UO-31 renal
  TGI: > 100 µM
MDA-N
  TGI: > 100 µM
IGROV1 ovarian
  TGI: > 100 µM
HT29 colon
  TGI: 80.3 µM
MDA-MB-435
  TGI: > 100 µM
MCF7 breast
  TGI: 62.5 µM
SK-MEL-28 melanoma
  TGI: > 100 µM
COLO 205 colon
  TGI: 76.2 µM
MDA-MB-231 breast
  TGI: > 100 µM
SNB-19 CNS
  TGI: 51.2 µM
PC-3 prostate
  TGI: > 100 µM
786-0 renal
  TGI: > 100 µM
NCI/ADR-RES ovarian
  TGI: > 100 µM
SW-620 colon
  TGI: > 100 µM

## Nc1ccc(-c2nc3ccc(Cc4ccc5nc(-c6ccc(N)cc6)oc5c4)cc3o2)cc1
OVCAR-4 ovarian
  TGI: > 100 µM
SF-268 CNS
  TGI: > 100 µM
HOP-92 NSCLC
  TGI: > 100 µM
DU-145 prostate
  TGI: > 100 µM
SK-OV-3 ovarian
  TGI: > 100 µM
UACC-257 melanoma
  TGI: > 100 µM
MOLT-4 leukemia
  TGI: > 100 µM
CCRF-CEM leukemia
  TGI: > 100 µM
M14 melanoma
  TGI: > 100 µM
U251 CNS
  TGI: > 100 µM
RXF 393 renal
  TGI: > 100 µM
ACHN renal
  TGI: > 100 µM
NCI-H522 lung
  TGI: > 100 µM
OVCAR-5 ovarian
  TGI: > 100 µM
NCI-H460 lung
  TGI: > 100 µM
CAKI-1 renal
  TGI: > 100 µM
SF-539 CNS
  TGI: > 100 µM
NCI-H226 lung
  TGI: > 100 µM
KM12 colon
  TGI: > 100 µM
SK-MEL-2 melanoma
  TGI: > 100 µM
SR leukemia
  TGI: 41.2 µM
HCT-15 colon
  TGI: > 100 µM
LOX IMVI melanoma
  TGI: > 100 µM
RPMI-8226 leukemia
  TGI: > 100 µM
SN12C renal
  TGI: > 100 µM
UACC-62 melanoma
  TGI: > 100 µM
HCC-2998 colon
  TGI: > 100 µM
SF-295 CNS
  TGI: > 100 µM
HCT-116 colon
  TGI: > 100 µM
MALME-3M melanoma
  TGI: > 100 µM
A549 NSCLC
  TGI: > 100 µM
OVCAR-8 ovarian
  TGI: > 100 µM
K-562 leukemia
  TGI: > 100 µM
NCI-H23 lung
  TGI: > 100 µM
UO-31 renal
  TGI: > 100 µM
MDA-N
  TGI: > 100 µM
HT29 colon
  TGI: > 100 µM
MDA-MB-435
  TGI: > 100 µM
TK-10 renal
  TGI: > 100 µM
MCF7 breast
  TGI: > 100 µM
SK-MEL-28 melanoma
  TGI: > 100 µM
COLO 205 colon
  TGI: > 100 µM
A498 renal
  TGI: > 100 µM
MDA-MB-231 breast
  TGI: > 100 µM
SNB-19 CNS
  TGI: > 100 µM
PC-3 prostate
  TGI: > 100 µM
786-0 renal
  TGI: > 100 µM
NCI/ADR-RES ovarian
  TGI: > 100 µM
SW-620 colon
  TGI: > 100 µM
